The values that follow come from article PMC6072469, “Small molecule piperazinyl-benzimidazole antagonists of the gonadotropin-releasing hormone (GnRH) receptor” (MedChemComm, 2017).

Each structure is given as a SMILES string. ≈ marks a conversion by molar mass, not a printed value. Where two headings read alike, the source gives them in different places. Where only a bound is given, the exact number is not on record here.

The target of one data set is rat GnRH receptor. More on the design: method as in PMID 19271735. Particulars: concentration to inhibit GnRH binding to the receptor by 50% ref 11; read-out: IC50 (rGnRH); cited from earlier work.
The next data set concerns the target human GnRH receptor. Also noted: method as in PMID 19271735. Particulars: concentration to inhibit GnRH binding to the receptor by 50% ref 11; read-out: IC50 (hGnRH); cited from earlier work.
Data set [1] in a line: Thermodynamic solubility assay (Analiza, LC-QTOFMS). To be noted: for solubility thermodynamic at 24 h: 24 hour incubation, ambient temperature. In kind it is physicochemical. As for the experimental part: Thermodynamic solubility assay
Analysis performed at Analiza, Cleveland Ohio.
Apparatus Agilent G6538 QTOF Mass Spectrometer equipped with dual Electrospray Ionization with Mass Hunter data software package Agilent 1290 Infinity II UHPLC system equipped with photodiode array detector, binary pump, vacuum degasser, column heater, thermostat and validated data acquisition software Standard Laboratory equipment (e.g. Pyrex volumetric flasks, graduated cylinders and bottles, sonicator, vortexer, digital timer, calibrated analytical balance, pipettes and tips
Test Compounds: were supplied as dry powder in vials
Consumables: Sodium Chloride (Cat # 21618) was purchased from Affymetrix, Cleveland, OH. HPLC grade water (Cat # EM-WX0004-1), Omnisolv Acetonitrile and (Cat #EM-AX0142-1, DimethylSulfoxide (Cat #D1258) was purchased from Spectrum Chemical, New Brunswick, NJ. DeepWell 96 well plates (Cat #AWLS-219002) were purchased from Arctic White, Bethlehem, PA. Whatman Mini UniPrep syringe-less filter device with […] PTFE filter membrane (Cat #US203NPUORG), Formic Acid (Cat# 0961-100mL) and Round bottom 96 well plates (Cat# 29444-104) were purchased from VWR, Radnor, PA. Benzthiazide (Cat # B7149) and Alprenolol (Cat# A0360000) were purchased from Sigma-Aldrich, St. Louis, MO. Hydrochloric acid,36%, (Cat # 124635000) and Phosphate Buffered Saline, 10X PBS solution, (Cat # BP399-500) were purchased from Fisher Scientific, Fair Lawn, New Jersey.
Preparation of Calibration Standards for LC-MS Analysis:
Separate test compound was weighed into 4mL vials for calibration curves. Samples were received as dry powders in vials containing approximately 5mg of material each. Upon arrival at Analiza the vials were intact.
DimethylSulfoxide (DMSO) was added to each sample such that the final concentration was 10mM and vortexed for 5-10 seconds. After vortexing, all compounds appeared to be fully dissolved. Each test compound was transferred to a polypropylene 96 well plate for robotic preparation of calibration standards.
Each test article DMSO stock solution was serially diluted using a Hamilton STARlet liquid handler with 50-50 LC-MS water 0.1% Formic Acid and LC-MS acetonitrile 0.1% Formic Acid to final concentrations as described below in Table 1 and plated in a polypropylene 96 well plate sealed with foil seal for analysis. A standard calibration curve was prepared for each compound from these dilutions.
Ambient Temperature Test compounds were received as dry powders in vials containing approximately 5mg of material each. Upon arrival at Analiza the vials were intact. Each sample was weighed into a Whatman vial and the appropriate Buffer (450uL) was added to each vial for a dose concentration of approximately 2mg/mL .
Following 24 hour incubation on a rotary shaker (200 RPM) at ambient temperature (22.6-25.0°C), the samples were filtered in a 96 well polypropylene plate. The plate was sealed with a pierceable heat seal and analyzed by […]
Quantitation: 1.) LC-QTOFMS: a. Each sample was weighed into a whatman vial and the appropriate buffer (450uL) was added to each vial for a dose concentration of approximately 2mg/mL incubated for 24 hours and filtered b. The filtrates were assayed undiluted or diluted 100X, 1000X, and/or 10000x with a 50:50 solution of mobile phase and eluted using a fast generic gradient program. c. […] The filtrates were quantified with respect to this calibration curve. […]

The target of a further data set is T1, hGnRH receptors (Homo sapiens, UniProt P30968).
T1 construct: host or cells: HEK293T (division-arrested, stably expressing)
T1 sequence (P30968 1-328): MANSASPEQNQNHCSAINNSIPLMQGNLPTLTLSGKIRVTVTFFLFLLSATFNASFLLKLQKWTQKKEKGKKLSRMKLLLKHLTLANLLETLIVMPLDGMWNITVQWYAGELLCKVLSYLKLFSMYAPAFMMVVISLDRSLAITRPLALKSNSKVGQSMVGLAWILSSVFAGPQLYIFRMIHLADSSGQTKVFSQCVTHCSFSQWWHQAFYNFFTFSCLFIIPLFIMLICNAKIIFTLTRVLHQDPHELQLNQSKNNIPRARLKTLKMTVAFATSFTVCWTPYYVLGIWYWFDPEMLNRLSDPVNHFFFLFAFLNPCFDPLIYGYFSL
Kind of data set: Functional cell assay (Ca2+ FLIPR): inhibition of receptor activation by LHRH/GnRH. In kind it is cell-based. To be noted: for potency to inhibit GnRH receptor (in words): compared with 1 / desired range. As for the experimental part:
Compounds insoluble in DMSO at 10 mM were dropped from testing. […] The lead compound WAY207024 (1) was included as a reference in the cell assay. All IC50 values obtained for each test compound in the concentration dependent screening were converted into Ki values using the equation of Cheng and Prusoff.[15] […]
DMEM (Corning Hanks’ Balanced PBS +/- IBMX 1 mM IBMX in Cellgro 10- 013- Salt Solution (TBD by PBS
CV): 90%; (HBSS) titration)
_FBS (Seradigm with 20 mM
Plating cell density for Plating cell density for Forskolin concentration 384-well microplate 384-well microplate for cAMP assay (Gαi-for Ca++ assay for cAMP assay coupled) immediately immediately 5-15 μM without IBMX;
Assay preparations, pretreatment of cells and seeding on 384 well plates.
Thawing Medium was prepared by mixing commercially available stock solutions of DMEM (Corning Cellgro 10-013-CV) and Fetal Bovine Serum, FBS (Seradigm Catalog #1500-500) in a volume ratio of 9:1.
Vials containing 4 x 10^6 frozen cells were transferred from liquid nitrogen to a 37 °C water bath and gently warmed while submerged under water. Immediately after the frozen cells are thawed, the cryovial was removed from the water bath, dried and cleaned with 70% alcohol. Using a 2 mL serological pipette, the cell suspension was transferred to a 15-mL conical centrifuge tube containing 5 mL DMEM pre-warmed to r.t.. The mixture was triturated gently with the same 2 mL serological pipette without causing any air bubbles.
The 15-mL tube was spun at 200x g for 5 minutes at r.t. the supernatant was removed and cells were resuspended in 11 mL of DMEM complete to obtain a cell concentration of 360000 cells/ml. Based on previous titration of cell densitites, 9000 cells were seeded per well and the plate was incubated over night at 37 °C/CO 2.
1. Loading buffer from MD is prepared. Dissolve 1 vial of dye in 10 mL buffer from kit.
2. HBBS/Hepes (1x with Ca/Mg)/20 mM Hepes, pH 7.4 with 0.1 % BSA to be used for dilution of the agonist
3. 60 mL HBBS/20 mM Hepes to be added to test compounds
The day of the assay the seeding medium was carefully decanted from each well by tilting the plate. 25 µl loading buffer containing the Ca 2+ sensing dye was added to each well. Subsequently, 20 µL of HBBS/Hepes were added to each well containing dye. Plates were incubated at 37 °C for 45 min, after which 5 µL antagonist solution (diluted in HBBS/HEPES) were dispensed into each well using a Hamilton 384 well head followed by incubation at r.t. for 15 min. After 15 min agonist was added on the FLIPR platform and the fluorescence signal […]
First sequence: 2 s, 30 sample. (Baseline)
Second sequence: 2 s, 120 sample. (Agonist stimulation)
12.5 µL addiiton, after sample 30.
Addition speed: 20 µl/sec
Compound concentration: 5x, add 12.5 µl of each
One minute baseline stabilisation, 240 s measurement
Compound plate preparation:
Agonist stock solution: Luteinizing hormone releasing hormone, 10 mM in water […]
Dissolve 5 mg in 423 µL of water, store at -80 °C until use.
Prepare a full plate with only agonist at experimental EC50 dose as reported before on FLIPR platform:
Dilute 3,225 µL in 25 mL HBSS/Hepes buffer with 0.1 % BSA
Test compounds (antagonists)
Sample to be analysed (>95% pure by HPLC/microanalysis, fully characterised).
DMSO for cell culture (reference free, anhydrous) stored in desiccator 1: Dimethyl sulfoxide (Hybri-Max™, sterile-filtered, BioReagent, suitable for hybridoma, ≥99.7%, D2650-5X10ML, Sigma-Aldrich) […]
A - Solubility of the sample is assessed with an aliquot of the material and DMSO prior to sample preparation.
B - 10 ±1 mg of each neat, homogeneous sample are weighed into a labelled 1.5 mL flip-top Eppendorff tube.

Data set [2] is described as follows: Solubility (method not given). In kind it is physicochemical.
Where [3] appears, read: pH 1.2 (simulated gastric fluid).
Where [4] appears, read: pH 7.4 (phosphate buffered saline).
[5] abbreviates: calculated from mean IC50 using the Cheng–Prusoff equation, read-out: Ki (hGnRH).
The mark [6] stands for this setting: inhibition of LHRH/GnRH stimulation in cells stably expressing hGnRH receptors, IC50 geometric mean of two experiments, read-out: pIC50 (hGnRH) (converted).

Regarding `CC(C)(C)c1ccc(-c2nc3c(N4CCN(Cc5cccc6nccnc56)CC4)cccc3[nH]2)cc1` [compound 1], the IC50 was 72 nM at rat GnRH receptor and 12 nM on human GnRH receptor.

As to `CC(C)(C)c1ccc(-c2nc3c(N4CCN(Cc5cn(CCF)nn5)CC4)cccc3[nH]2)cc1` [8a], the solubility (thermodynamic) (usually solubility found after equilibrating the solid with the medium) at 24 h in data set [1] (setting [3]) was 2100 µg/mL (≈ 4550 µM); in data set [1] (setting [4]) it was 3 µg/mL (≈ 6.5 µM). Besides, the “solubility, times more soluble than 1” value in data set [1] (relative to 1) was 1.5 times. Besides, at hGnRH receptors, the “potency to inhibit GnRH receptor (in words)” value is “equally potent as 1”.

For the compound `Cc1cn(C2CC(n3cc(CN4CCN(c5cccc6[nH]c(-c7ccc(C(C)(C)C)cc7)nc56)CC4)nn3)C(CO)O2)c(=O)[nH]c1=O` (stereo not shown) [8g], the thermodynamic solubility at 24 h in data set [1] (setting [3]) is 1200 µg/mL (≈ 1880 µM); in data set [1] (setting [4]) it was less than 1 µg/mL. The Ki (as a rule, the equilibrium dissociation constant of an inhibitor or competing ligand from its target) at hGnRH receptors (setting [5]) is 38 nM. Also, the IC50 on hGnRH receptors (setting [6]) was 2000 nM.

As to `CC(C)(C)c1ccc(-c2nc3c(N4CCN(Cc5cn(-c6nc7ccccc7[nH]6)nn5)CC4)cccc3[nH]2)cc1` [8h], on hGnRH receptors, the “potency to inhibit GnRH receptor (in words)” value was “did not give the desired inhibition”.

Consider `CC(C)(C)c1ccc(-c2nc3c(N4CCN(Cc5cn(-c6ccc(F)cc6)nn5)CC4)cccc3[nH]2)cc1` [8i], for which, at hGnRH receptors, the “potency to inhibit GnRH receptor (in words)” value was “did not give the desired inhibition”.

On hGnRH receptors, `CSc1nc(NC(C)C)nc(-n2cc(CN3CCN(c4cccc5[nH]c(-c6ccc(C(C)(C)C)cc6)nc45)CC3)nn2)n1` [8j] yielded an IC50 of more than 10000 nM and a Ki of more than 1000 nM.

On to `CC(C)(C)c1ccc(-c2nc3c(N4CCN(CCF)CC4)cccc3[nH]2)cc1` [7a], for which the “potency, fold lower than 1” value at hGnRH receptors (relative to 1) was 21 fold. Besides, the solubility (usually the dissolved amount per volume that the medium holds) in data set [2] was more than 0.1 µM.

`C#CCN1CCN(c2cccc3[nH]c(-c4ccc(C(C)(C)C)cc4)nc23)CC1` [7b] returned a solubility in data set [2] of more than 0.1 µM.

As to `CC(=O)NC1C(O)C(O)C(CO)OC1n1cc(CN2CCN(c3cccc4[nH]c(-c5ccc(C(C)(C)C)cc5)nc34)CC2)nn1` (stereo not shown) [8f], the Ki on hGnRH receptors (setting [5]) was more than 1000 nM. The IC50 at hGnRH receptors (setting [6]) was more than 10000 nM.
